Data from US20040171089A1, “High-throughput screening assay for identifying substances capable of modulating cell survival and/or proliferation” (priority 2001, published 2004).

Key:
Format in all cases: cell-based, human
MDA MB 468 cells = assay: MTS cell viability/proliferation assay, MDA MB 468 cells; conditions: 15 minute exposure then drug-free medium; at 48 hours; MTS
Method: (§1) This was carried out using an MTS assay (reagents from Promega Corporation, Madison Wis., USA) which is a modification of the MTT assay (as described in Jacobson et al, 1994 EMBO J Vol 13 pp1899-1910). The assay depends on conversion of the MTS tetrazolium compound to a coloured formazan product in metabolically active cells; it is therefore an assay of viable cell number. A decline in values implies cell killing as long as cell disappearance by apoptosis in untreated cell populations is absent or negligible (as with most healthy primary cell populations).
(§2) Cells were seeded in the range 1.5×10^5-1.8×10^5 cells per ml of culture medium in 96 well microtitre plates and allowed to attach in a humidifed atmosphere of 5% CO2 in air at 37 deg C. Drugs were added 18-24 hours later and cell viability/proliferation measured at time intervals up to 48-72 hours post-drug addition when the experiment was terminated. Mean (±SE) values at each time point were obtained from wells in triplicate.
(§3) Cell viability was measured as follows: 20 μl of MTS solution (Promega) was added to wells and incubated at 37 deg C. for 3 hours during which time a coloured formazan product is generated in viable cells. […] Viable cell number was then measured by reading absorbance at 490 nm in a Dynex microtitre plate reader. […]

mammary epithelial cells = assay: MTS cell viability/proliferation assay, mammary epithelial cells; conditions: 1-10 μM
Method: Human mammary epithelial cells (catalogue number CC-2551; stain positive for cytokeratins 14, 18 and 19)
as §1
as §2, with “Mean (±SE) values at each time point were obtained from wells in triplicate.” left out
as §3

phospholipase C = assay: Quantitative HPLC assay of inositol phosphates (IP3 levels) in MDA MB 468 cells; conditions: [3H] inositol labelled cells
Description: The PH domain of PLC delta 1 has a higher affinity for the phosphoinositide IP3 compared to PIP2. IP3 is produced from PIP2 in response to activation of PLC. Since PIP2 is membrane-bound whereas IP3 is cytosolic, the activation of PLC can be visualised in living cells by the relocalisation of GFP-PH PLC delta 1 from membrane to cytosol. A proviso to this interpretation is that, in conditions where PIP2 levels decline relative to IP3, the net effect would be relocalisation of GFP-PH PLC delta 1 from membrane to cytosol. Thus, to exclude this possibility, quantitative phospholipid assays were performed. (In this analysis, cells were labelled with [^3H] inositol in inositol-free DMEM (In Vitrogen—Gibco) with dialysed FBS for 48 hours before exposure to sigma ligands. Cells were then lysed and subjected to quantitative HPLC assay). These assays confirmed that IP3 levels had risen in cells exposed to sigma antagonists (IP3 levels had risen to 240% and 166% of the level prior to provision of the test substance in response to IPAG and rimcazole respectively) but had not risen in cells exposed to sigma-1 or sigma-2 agonists. This confirmed activation of PLC by sigma antagonists.

`N=C(Nc1ccc(I)cc1)NC1C2CC3CC(C2)CC1C3` (stereo not drawn) [IPAG, 1-(4-iodophenyl)-3-(2-adamantyl)guanidine] was tested. Which “viable cell number less than control values” (MDA MB 468 cells) did it give?
Its value is 20-30%.

And the Cytotoxicity (mammary epithelial cells)?
The Cytotoxicity was “not cytotoxic”.

What about the “IP3 levels, % of the level prior to provision of the test substance” value (phospholipase C) of the same compound?
The value was 240%.
